Experimental data reported in patent US7507581B2, “Inhibition of pancreatic islet aggregation” (Synthecon, Inc., priority 2005, dated 2009).
Entries after “also recorded” stand apart in the source; their conditions may differ.

How the values were obtained:
Type in all cases: cell-based
human pancreatic islets [1] = assay: ATP levels in cultured human pancreatic islets (luciferin/luciferase luminescence)
Protocol: (§1) In each sample, the islets were allowed to settle at 1×g in a sterile centrifuge tube. Once the islets had settled, the supernatant was removed and replaced with 2 ml of media. Control samples of islets (Samples 2 and 4) were placed in the control media (i.e., CMRL-1066 media containing 10% bovine serum, 1% penicillin/streptomycin/amphotericin B, and 2 mM glutamine) and experimental samples of islets (Samples 3 and 5) were incubated with the control media to which 50 μg/ml IKVAV-containing peptide such as the PA22-2 (SEQ ID NO. 1) peptide had been added. The IKVAV-containing peptides are hereinafter referred to as laminin A chain peptide. […]
(§2) Samples 2 and 3 were transferred to standard culture dishes (petri dishes) at a cell density of approximately 200 islets/ml. […] After the Samples 2-5 had been cultured for 7 days, the islets were removed from the culture dish or RCCS bioreactor vessel and assessed for aggregation, apoptosis and ATP levels.
Islet ATP levels were measured by luciferin/luciferase luminescence. […] The cells were pelleted by centrifugation and 10 μl of the lysed cell supernatant was placed in a luminescence multiwell plate with 90 μl of reaction solution (25 mM Tricine pH 7.8, 5 mM MgSO4, 0.1 mM EDTA, 0.1 mM sodium azide with 0.5 mM lucifirin, 1 mM DTT and 12.5 μg of firefly luciferase). […]
The data from four experiments was analyzed by a one-way ANOVA. […]

human pancreatic islets [2] = assay: Aggregation of high-density pancreatic islets in culture (RCCS bioreactor or petri dish)
Protocol: It is hypothesized that synthetic peptides containing the IKVAV peptide sequence (SEQ ID NO. 2) can inhibit the aggregation of islets cultures in the RCCS bioreactor. Experiments were performed to compare the aggregation of about 200-300 islets/ml cultured in the presence and absence of each peptide to be tested. Initial experiments added the peptide to the culture media in a small (10 ml) RCCS bioreactor vessel. It was realized that providing a large volume of culture media with sufficient concentrations of the PA22-2 peptide or another IKVAV-containing peptide component of laminin would be prohibitively expensive. Thus, the experimental protocol was altered as described below.
as §1, §2
An aliquot of islets from each sample was fixed by washing the islets two times in phosphate buffered saline (PBS) and then transferring the washed samples to a 4% paraformaldehyde solution for 2 hours to fix the islets. […] The islets were analyzed for their, degree of aggregation by digitizing ten microscopic fields and measuring the cross sectional areas of the islets within each field with the image processing program NIH Image. […]

[3] = tested on: caspase 3 activity in cultured human pancreatic islets; assay: Caspase 3 activity (apoptosis) in cultured human pancreatic islets
Protocol: (§3) In each sample, the islets were allowed to settle at 1×g in a sterile centrifuge tube. Once the islets had settled, the supernatant was removed and replaced with 2 ml of media. Control samples of islets (Samples 2 and 4) were placed in the control media (i.e., CMRL-1066 media containing 10% bovine serum, 1% penicillin/streptomycin/amphotericin B, and 2 mM glutamine) and experimental samples of islets (Samples 3 and 5) were incubated with the control media to which 50 μg/ml IKVAV-containing peptide such as the PA22-2 (SEQ ID NO. 1) peptide had been added. The IKVAV-containing peptides are hereinafter referred to as laminin A chain peptide.
(§4) All four samples were gently mixed and placed in a humidified incubator for 3 hours at 37° C. At half hour intervals, the tubes containing the samples were gently inverted to prevent aggregation of the islet pellet.
as §2, with “dishes) at a cell density of approximately 200 islets/ml. Samples 4 and 5 were transferred to 35 ml perfused RCCS bioreactor vessels” for “dishes)”, “levels. […]” for “levels.”
Fifty microliters of the lysed cell supernatant from each sample was transferred into a microplate well. […] The free rhodamine was measured by fluorescence (excitation/emission-496/520 nm). The fluorescence was quantitated using arbitrary fluorescence units derived by normalizing the rhodamine fluorescence to the quantity of DNA in the islet sample, which is directly proportional to cell number.
Experiments were performed to compare islet caspase 3 activity in islets cultured in conventional petri dishes (labeled in FIG. 3 as Dish) with islets preincubated with the laminin A chain peptide PA22-2 and cultured in an RCCS bioreactor (labeled in FIG. 3 as RCCS+ laminin). […] The data from four experiments was analyzed by a one-way ANOVA. Differences between the groups were determined by the Student-Newman Keuls test.

human pancreatic islets [4] = assay: H & E stained thin sections of cultured human islets; details: preincubated with peptide, 7 days in RCCS bioreactor; compared with petri dish control
Protocol: as §3, §4
Samples 2 and 3 were transferred to standard culture dishes (petri dishes) at a cell density of approximately 200 islets/ml. Samples 4 and 5 were transferred to 35 ml perfused RCCS bioreactor vessels at a cell density of approximately 200 islets/ml. All of the samples (Samples 2-5) were then cultured for 7 days. After the Samples 2-5 had been cultured for 7 days, the islets were removed from the culture dish or RCCS bioreactor vessel and assessed for aggregation, apoptosis and ATP levels. […]

ATP levels (human pancreatic islets [1]; RCCS+laminin (Sample 5): preincubated with peptide, 7 days RCCS, vs Dish control (Sample 2), p<0.05, n=4): significantly higher ATP levels
Substance: CYS-SER-ARG-ALA-ARG-LYS-GLN-ALA-ALA-SER-ILE-LYS-VAL-ALA-VAL-SER-ALA-ASP-ARG (CSRARKQAASIKVAVSADR; laminin A chain) [PA22-2, 19 amino acid synthetic peptide containing residues 2091-2108 of the laminin A chain, IKVAV-containing]
ATP levels (human pancreatic islets [1]; Sample 3: preincubated 3 hours with 50 μg/ml peptide, 7 days petri dish, vs Dish control (100%), n=4): tended to have higher ATP levels but the values did not have a p value less than 0.05 | aggregation inhibiting activity (human pancreatic islets [2]; peptide added to RCCS-cultured islets, cell density about 200-300 islets/ml): showed substantial aggregation inhibiting activity | adherence of islets to petri dish (human pancreatic islets [2]; peptide left in the media during the entire culture period, petri dish): caused the petri dish control islets to adhere to the non-stick petri dishes | degree of aggregation of islets (human pancreatic islets [2]; preincubated 3 hours with 50 μg/ml peptide, then seven-day culture in RCCS bioreactor, compared with no peptide): lower degree of aggregation; also recorded: sufficient to prevent aggregation of the islets in the RCCS bioreactor; also recorded: beneficial in preventing islet aggregation | caspase 3 activity ([3]; Dish+ laminin: preincubated 3 hours with 50 μg/ml peptide, 7 days petri dish, vs Dish control (100%), n=4): slightly lower caspase 3 activity but the values did not have a p value less than 0.05; also recorded: no significant effect on islet caspase 3 activity | caspase 3 activity ([3]; RCCS+ laminin (Sample 5): preincubated 3 hours with 50 μg/ml peptide, 7 days RCCS, vs RCCS-cultured islets without peptide (Sample 4)): less caspase 3 activity than the RCCS-cultured islets of Sample 4 | caspase 3 activity ([3]; RCCS+ laminin: preincubated 3 hours with 50 μg/ml peptide, 7 days RCCS, vs Dish control, p<0.05, n=4): significantly less caspase 3 activity than did the dish-cultured islets | islet structure / membrane integrity (H & E thin sections) (human pancreatic islets [4]): maintained their membrane integrity and appeared to be healthy and viable
